Values of other authors as cited in patent publication US20100047451A1, “ACTINIC-RADIATION CURABLE INK COMPOSITION, INK SET, INK JET PRINTING APPARATUS, AND INK JET RECORDING METHOD USING ACTINIC-RADIATION CURABLE INK COMPOSITION” (SEIKO EPSON CORPORATION, priority 2008, published 2010).

Settings: measurements at 25° C.
In the case of `C=CC(=O)OCC1COC(C)(CC)O1` (stereo not drawn) [(2-Methyl-2-ethyl-1,3-dioxolan-4-yl)methyl acrylate], the Viscosity is listed as 5.1 mPa · s.
For Polyethylene glycol 200 dimethacrylate, the Viscosity is listed as 14 mPa · s.

Settings: primary irritation index
For `C=C(C)C(=O)OCCCCCCOC(=O)C(=C)C` [1,6-Hexanediol dimethacrylate], the PII is given as 0.5.
In the case of `C=CC(=O)OCCCCCCCCCOC(=O)C=C` [1,9-Nonanediol diacrylate], the PII is listed as 2.0.
For `C=C(C)C(=O)OCC(O)COC(=O)C(=C)C` [2-Hydroxy-1,3-dimethacryloxypropane], the PII is given as 0.6.
In the case of `C=CC(=O)OCC1COC(C)(CC)O1` (stereo not drawn) [(2-Methyl-2-ethyl-1,3-dioxolan-4-yl)methyl acrylate], the PII is given as 1.3.
In the case of `C=CC(=O)OCC1COC(C)(CC(C)C)O1` (stereo not drawn) [(2-Methyl-2-isobutyl-1,3-dioxolan-4-yl)methyl acrylate], the PII is listed as 1.0.
For `C=CC(=O)N1CCOCC1` [Acryloylmorpholine], the PII is given as 0.5.
In the case of `C=C(C)C(=O)OCCOCCOC(=O)C(=C)C` [Diethylene glycol dimethacrylate], the PII is listed as 0.5.
For `C=C(C)C(=O)OCCOC(=O)C(=C)C` [Ethylene glycol dimethacrylate], the PII is given as 0.6.
In the case of `C=CC(=O)O[C@@H]1C[C@H]2CC[C@]1(C)C2(C)C` [Isobornyl acrylate], the PII is listed as 0.6.
In the case of `C=CC(=O)OCCOCCOC` [Methoxy diethylene glycol monoacrylate], the PII is given as 0.7.
In the case of `C=C(C)C(=O)OCC(C)(C)COC(=O)C(=C)C` [Neopentyl glycol dimethacrylate], the PII is listed as 0.0.
In the case of `C=CC(=O)OCCOc1ccccc1` [Phenoxyethyl acrylate], the PII is listed as 1.7.
In the case of `C=C(C)C(=O)OCC(CC)(COC(=O)C(=C)C)COC(=O)C(=C)C` [Trimethylolpropane trimethacrylate], the PII is listed as 0.8.
In the case of `C=CC(=O)OCC(C)OCC(C)OCC(C)OC(=O)C=C` (stereo not drawn) [Tripropylene glycol diacrylate], the PII is given as 1.6.
For Glycerol PO-modified triacrylate, the PII is listed as 0.8.
For Polyethylene glycol 200 dimethacrylate, the PII is listed as 0.5.
For Polyethylene glycol #400 diacrylate, the PII is given as 0.4.
In the case of “Trimethylolpropane PO-modified triacrylate”, the PII is given as 0.1.
In the case of Trimethylolpropane-modified triacrylate, the PII is given as 1.5.
